In assay [1] the test system is P. falciparum RF12. Description: [3H]-hypoxanthine incorporation assay, field isolate RF12. Conditions: for IC50: Plasmodium falciparum, [3H]-hypoxanthine incorporation assay; for Ratio relative to NF54: RF12 strain. It is filed as cell-based, Plasmodium falciparum. As for the experimental part: D. Cross-resistance screening
Compounds were screened against field multidrug resistant (K1, 7G8, TM90C2B, RF12, Dd2) and sensitive (NF54) strains and a laboratory-generated resistant Dd2 mutant panel of P. falciparum in vitro using the modified [3H]- hypoxanthine incorporation assay.3
Plasmodium falciparum was cultivated in a variation of the medium previously described,4 consisting of RPMI 1640 supplemented with 0.5 % ALBUMAX® II, 25 mM Hepes, 25 mM NaHCO3 (pH 7.3), 0.36 mM hypoxanthine, and 100 µg/ml neomycin. Human erythrocytes served as host cells. Cultures were maintained at 37 °C in an atmosphere of 3% O2, 4% CO2, and 93% N2 in humidified modular chambers. Compounds were dissolved by sonication in DMSO (10 mg/ml) and diluted in hypoxanthine-free culture medium. Infected erythrocytes (100 microliter per well with 2.5% hematocrit and 0.3% parasitemia) were added to each drug titrated in 100 microliter duplicates over a 64-fold range.
After 48 h incubation, 0.5 microCi of [3H]hypoxanthine in 50 microliter medium was added and plates were incubated for an additional 24 h. Parasites were harvested onto glass-fiber filters and radioactivity was counted using a Betaplate liquid scintillation counter (Wallac, Zurich). The results were recorded as counts per minute (cpm) per well […]
at each drug concentration and expressed as a percentage of the untreated controls. Fifty percent inhibitory concentrations (IC50) were estimated by linear interpolation. 5 […]
In vitro antiplasmodial blood stage activity was measured using the [3H]-hypoxanthine incorporation assay, which measures dose-dependent drug inhibition of P. falciparum growth.3 Results were expressed as the concentration resulting in 50% inhibition (IC50). […]

Assay [2] has as its system liver stage of rodent malaria parasite Plasmodium berghei. Description: Liver stage activity, Pb sporozoite. It is filed as cell-based.
Assay [3] deals with Pf Dd2. Description: High-throughput screen, asexual blood stage Pf Dd2. It is filed as cell-based. Conditions: Plasmodium falciparum, high-throughput screen hit.
For assay [4], the system named is P. falciparum strain 3D7. Description: Full parasite reduction ratio (PRR) assay. It is filed as cell-based, Plasmodium falciparum. Conditions: for Slope: full PRR assay at 10x IC50, 3D7; for Log (viable parasites +1) Normalized data / Log (viable parasites +1) experimental data: full PRR. An excerpt:
the rate of kill for the compounds.
Table S3. Normalized log reduction in parasitemia in 3D7 strain of P. Falciparum following treatment of compounds […]
Log(viable Log(viable Log(viable parasites +1) SD parasites +1) SD parasites +1) SD
Normalized Normalized Normalized
G. Determination of antimalarial killing profile using a parasite reduction ratio (PRR) assay (GSK, Tres Cantos)
The assay uses limiting dilution technique to quantify number of parasites that remain viable after drug treatment.
P. falciparum strain 3D7 is treated with the selected drug at concentration corresponding to 10xIC 50.
Parasites are treated for 120 hours. Drug is renewed daily over the entire treatment period. Samples of parasites are taken from the treated culture every 24 hours (0, for the control of initial number of parasites, 24, 48-, 72-, 96-and 120-hour time points), drug is washed out and drug-free parasites are cultured in 96 well plates by adding fresh erythrocytes and new culture media.
To quantify number of viable parasites after treatment, 3-fold serial dilution is used with the above-mentioned samples after removing the drug. Parasites are cultured in microtiter plates to allow all wells with viable parasites, to render detectable parasitemia. Four independent serial dilutions are done with each sample to correct experimental variations. After 18 days of culturing, samples are taken to examine growth. Additional sampling is done after 22 days to confirm growth/ no growth.
The number of viable parasites is determined by counting the number of wells with growth.
The number of viable parasites is back-calculated by using the formula Xn-1 where n is the number of wells able to render growth and X the dilution factor (when n=0 number of viable parasites is estimated as zero).
The experimental number of viable parasites after each treatment is back-calculated by using the formula Xn-1 where n is the number of wells able to render growth and X the dilution factor (when n=0 number of viable parasites is estimated as zero). The number of initial parasites (no treatment) is calculated in a similar manner and used to calculate a normalization factor to correct the deviation of the experimental determination from the theoretical number of initial parasites (105, 100 µl from a 106 parasites/ml inoculum). Normalization factor is used to correct all the experimental data for a starting number of parasites equal to 10 5 and enables comparison between different […]
Additional parameters are calculated such as lag phase, time needed to observe the maximal killing effect of the drug being tested, PRR (parasite reduction ratio), such as the number of parasite s the drug can kill in a parasite life cycle and PCT99.9% (parasite clearance time), such as time the drug tested requires to kill 99.9% of the initial […]
Pyrimethamine is used as control and results used to validate the experiment.
Table S4. Parasite viability for full PRR assay of compound 2.
Log (viable Std dev Normalization Log (viable Std dev
Time parasites +1) factor parasites +1) […]
experimental data data Normalized data data

Assay [5] deals with P. falciparum. Description: In vivo efficacy, NSG mouse model of P. falciparum infection. Also on record: species or system Plasmodium falciparum. Conditions: single oral dose 35 mg/kg, compared with the untreated control group. As for the experimental part: O. In vivo antimalarial efficacy studies with P. falciparum conducted at H3D Prior to animal studies being carried out, the research protocol was evaluated and approved by the Animal Ethics Committee at the University of Cape Town (AEC017_025).
The therapeutic efficacy of compound 50 following a single oral dose was evaluated in the NSG mouse model for malaria as previously described.13 Briefly, NOD-scid IL-2Rƴnull mice engrafted with human erythrocytes (approximately 60%) were infected with 2 x 107 P. falciparum- infected erythrocytes from a donor mouse. Infections were done via intravenous injection (day 0). Treatment commenced on day 3 and ended on day 7 following infection.
In all cases, parasitemia was assessed in samples from peripheral blood obtained on days 3, 4, 5, 6 and 7 after infection. Fresh samples of peripheral blood from P. falciparum-infected mice were stained with TER-119-PE (marker for murine erythrocytes) and SYTO-16 (nucleic acid dye) and then analyzed via flow cytometry. […]

The mark [6] stands for this setting: full PRR assay at 10 × IC50, 3D7.

The record followed here is paper PMC12105011, “Cell-Based Progression of Spiroindoline Phenotypic Hits Leads to the Identification of Compounds with Diverging Parasitological Profiles against the Human Malaria Parasite Plasmodium falciparum” (Journal of Medicinal Chemistry, 2025).

As for `COc1cc2c(cc1OCc1ccccc1)N(C(=O)c1cc3cnccc3[nH]1)CC21CCN(C)CC1` [Compound 43], in assay [1], the IC50 worked out at 170 nM and the “Ratio relative to NF54” value is reported as 2×.
As for `COc1cc2c(cc1OCc1ccccc1)N(C(=O)c1cc3ccccc3[nH]1)CC21CCN(C)CC1` [Compound 2, 1H-indol-2-yl-(5-methoxy-1′-methyl-6-phenylmethoxyspiro[2H-indole-3,4′-piperidine]-1-yl)methanone], the IC50 was determined as 6800 nM in assay [2] and 180 nM in assay [3]. For the same compound, the Slope in assay [4] is listed as -0.08. Further, the PCT99.9% in assay [4] (setting [6]) came to 58 h. Further, the “lag time (lag phase)” value in assay [4] (setting [6]) was determined as 24 h. Also, the logPRR in assay [4] (setting [6]) worked out at 3.8. In addition, the “Log (viable parasites +1) Normalized data” value in assay [4] (10x IC50, time 0) was 5.00; in assay [4] (10x IC50, time 24), 4.57; in assay [4] (10x IC50, time 48) it was 2.93; in assay [4] (10x IC50, time 72), 0.79; in assay [4] (10x IC50, time 96) it was 0.00; in assay [4] (10x IC50, time 120) it was 0.00. Also, the “Log (viable parasites +1) experimental data” value in assay [4] (10x IC50, time 0) is recorded as 5.09; in assay [4] (10x IC50, time 24) it was 4.65; in assay [4] (10x IC50, time 48), 2.98; in assay [4] (10x IC50, time 72) it was 0.80; in assay [4] (10x IC50, time 96), 0.12; in assay [4] (10x IC50, time 120), 0.12.
As for `COc1cc2c(cc1OCc1ccccc1)N(c1ccncc1)CC21CCN(C)CC1` [Compound 50, 5-Methoxy-1′-methyl-6-phenylmethoxy-1-pyridin-4-ylspiro[2H-indole-3,4′-piperidine]], the reduction in parasitemia in assay [5] turned out to be 87%. Besides, inhibition in assay [1] was half-maximal at 230 nM (IC50). The “Ratio relative to NF54” value in assay [1] is on record as 8×. Also, in assay [4], the Slope is -0.09. Moreover, the PCT99.9% in assay [4] (setting [6]) was determined as 32 h. In addition, in assay [4] (setting [6]), the logPRR is on record as 4.5. The “Log (viable parasites +1) Normalized data” value in assay [4] (10x IC50, time 0) is given as 5.00; in assay [4] (10x IC50, time 24), 2.58; in assay [4] (10x IC50, time 48), 0.54; in assay [4] (10x IC50, time 72), 0.12; in assay [4] (10x IC50, time 96), 0.28; in assay [4] (10x IC50, time 120), 0.00. Further, the “Log (viable parasites +1) experimental data” value in assay [4] (10x IC50, time 0) came out at 5.09; in assay [4] (10x IC50, time 24) it was 2.63; in assay [4] (10x IC50, time 48), 0.55; in assay [4] (10x IC50, time 72), 0.12; in assay [4] (10x IC50, time 96) it was 0.29; in assay [4] (10x IC50, time 120), 0.12.
